Experimental data published in patent publication US20130023494A1, “MODULATORS OF THE GPR119 RECEPTOR AND THE TREATMENT OF DISORDERS RELATED THERETO” (ARENA PHARMACEUTICALS, INC., priority 2010, published 2013).

Columns and labels:
incretin hormone GIP = assay: Incretin hormone GIP release in male 129SVE mice (Total GIP ELISA); assay type: in vivo, mouse; settings: 10 mpk p.o., plasma sample after 45 min, PET vehicle 72.5
Experimental: Male 129SVE mice (approximately 8-week old) were fasted for 18 h and randomly grouped (n=6) to receive a GPR119 agonist (Compound 28, Compound 73, Compound 71, Compound 62, and Compound 30) at 10 mpk dose (mg/kg body weight). Compounds were delivered orally via a gavage needle (p.o., volume 4 mL/kg), and after 45 min a blood sample was collected to determine plasma total GIP levels. A separate group received vehicle (PET: 80% PEG:10% Ethanol:10% Tween80™) as control. Plasma GIP levels were determined using a Total GIP ELISA kit from Millipore.

hGPR119 = target: T1, hGPR119 (Homo sapiens, UniProt Q8TDV5); assay: HTRF cAMP assay in CHO-K1 cells stably expressing the GPR119 receptor; assay type: cell-based; settings: 1 h room temperature
T1 construct: expressed in transfected cells
T1 sequence (Q8TDV5 2-335 limits assumed): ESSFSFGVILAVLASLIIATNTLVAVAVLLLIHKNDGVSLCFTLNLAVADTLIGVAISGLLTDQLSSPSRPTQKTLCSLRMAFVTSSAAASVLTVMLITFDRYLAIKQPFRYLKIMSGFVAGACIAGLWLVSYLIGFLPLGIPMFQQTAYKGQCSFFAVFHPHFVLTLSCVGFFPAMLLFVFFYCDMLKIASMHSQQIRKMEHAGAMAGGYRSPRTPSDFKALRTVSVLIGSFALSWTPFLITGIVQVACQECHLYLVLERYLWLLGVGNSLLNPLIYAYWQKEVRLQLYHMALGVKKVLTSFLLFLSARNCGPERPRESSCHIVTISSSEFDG
Experimental: GPR119 agonists were evaluated in an HTRF® cAMP detection assay according to the manufacturer's instructions (Cisbio, cAMP Dynamic 2 Assay Kit; #62AM4PEJ) using CHO-K1 cells stably expressing the GPR119 receptor. Briefly, CHO-K1 cells were transduced with a lentiviral vector encoding the nucleotide sequence of GPR119 (NCBI mRNA and protein reference sequences: NM_178471.2 & NP_848566, (GPR119 has also been referred to as Glucose-Dependent Insulinotropic Receptor (GDIR)). The N-terminus of the GPR119 nucleotide sequence was modified to replace the first, methionine-coding codon with a nucleotide sequence coding for a standard, nine amino acid, hemagglutinin tag. Following transduction, cells expressing the GPR119 receptor were isolated and a single clone was isolated following standard dilution-cloning procedures. On the day of the assay, cultured CHO-GPR119 cells were harvested, suspended in assay buffer and plated into 384-well assay plates (PerkinElmer Proxiplate #6008280) at a density of 2,000 cells per well. A cAMP standard curve was added to each plate. Test compounds were solubilized in DMSO, serially diluted in DMSO and then diluted in assay buffer before adding to the cells. Test compounds were evaluated in triplicate, using 10-point, 5-fold serial dilutions starting at 10 μM. The final DMSO concentration in the assay was 0.5%. Compounds and cells were incubated for 1 h at room temperature and then detection reagents were added to each well (cAMP-D2 in cell lysis buffer, followed by europium cryptate-labeled anti-cAMP antibody). Plates were then incubated at room temperature for 1 h prior to reading. Time-resolved fluorescence measurements were collected on PerkinElmer Envision™ or BMG Pherastar™ microplate readers. The compound N-(2-fluoro-4-(methylsulfonyl)phenyl)-6-(4-(3-isopropyl-1,2,4-oxadiazol-5-yl)piperidin-1-yl)-5-nitropyrimidin-4-amine was used as a positive control in each runset while assay buffer containing 0.5% DMSO was used as the negative control. The HTRF® assay was used to determine EC50 values for GPR119 agonists.

male diabetic ZDF rats = assay: Oral glucose tolerance test (oGTT) in male diabetic ZDF rats; assay type: in vivo, rat; settings: for % Inhibition of Glucose Excursion (dose: mg/kg): ZDF rats, glucose excursion AUC reduction relative to vehicle; for blood glucose after challenge with glucose: diabetic ZDF rats
Experimental: FIGS. 1 to 4, 16 and 17 show results of three independent experiments with three representative GPR119 agonists of the present invention, namely, Compound 28, Compound 62, and Compound 83. In each experiment, male ZDF rats (approximately 10-week old) were fasted for 18 hours and randomly grouped (n=6) to receive a GPR119 agonist (Compound 28, Compound 62, or Compound 83) at indicated doses (mg/kg body weight). Compounds were delivered orally via a gavage needle (p.o., volume 4 mL/kg) 1 h prior to glucose bolus (3 g/kg) (time=−60 min in FIGS. 1, 3, and 16), with a separate group receiving vehicle (20% hydroxypropyl-beta-cyclodextrin) as control in each experiment. At time 0 min the glucose bolus was administered. Levels of blood glucose were assessed using a glucometer (One-Touch Ultra™, LifeScan) at time −60 min (prior to compound administration), at 0 min (time when glucose bolus was given), and at 30, 60, 90, 120 min post glucose bolus. The plasma glucose excursion curves are given in FIGS. 1, 3, and 16, and glucose excursion AUC (area under the curve) reductions in compound treated animals relative to vehicle control are given in FIGS. 2, 4, and 17, and in Table 1.

male 129SVE mice = assay: Oral glucose tolerance test (oGTT) in male 129SVE mice; assay type: in vivo, mouse; settings: for % Inhibition of Glucose Excursion: AUC reduction relative to vehicle
Experimental: Male 129SVE mice (approximately 8-week old) were fasted for 18 h and randomly grouped (n=6) to receive a GPR119 agonist (Compound 28) at 1, 3, or 10 mg/kg (mg/kg body weight). The compound was delivered orally via a gavage needle (p.o., volume 4 mL/kg) 30 minutes prior to glucose bolus (3 g/kg) (time=−30 min in FIG. 5), with a separate group receiving vehicle (20% hydroxypropyl-beta-cyclodextrin) as control. At time 0 min the glucose bolus was administered. Levels of blood glucose were assessed using a glucometer (One-Touch Ultra™, LifeScan) at time −30 minute (prior to compound administration), at 0 min (at time when glucose bolus was given), and at 20, 40, 60, 120 minutes post glucose bolus. The plasma glucose excursion curve is given in FIG. 5, and glucose excursion AUC (area under the curve) reduction in compound treated animals relative to vehicle control is given in FIG. 6, and in Table 2.

[1] = 10 mg/kg p.o. 1 h prior to glucose bolus (3 g/kg)
[2] = 30 mg/kg p.o. 1 h prior to glucose bolus (3 g/kg)

| Structure (SMILES) | Total GIP, pg/mL (dose, mg/kg) (incretin hormone GIP) [pg/mL] | EC50 (hGPR119) [nM] | further results |
| --- | --- | --- | --- |
| CS(=O)(=O)c1cnc(O[C@H]2CC[C@H](OC3CCN(C(=O)OC(CF)CF)CC3)CC2)cn1 [Compound 71, 1,3-difluoropropan-2-yl 4-((1r,4r)-4-(5-(methylsulfonyl)pyrazin-2-yloxy)cyclohexyloxy)piperidine-1-carboxylate] | 379.8 | – | – |
| Cc1nc(S(C)(=O)=O)ccc1O[C@H]1CC[C@H](OC2CCN(C(=O)SC(C)C)CC2)CC1 [Compound 116, S-isopropyl 4-((1r,4r)-4-(2-methyl-6-(methylsulfonyl)pyridin-3-yloxy)cyclohexyloxy)piperidine-1-carbothioate] | – | 5 | – |
| C=C(C)c1noc(N2CCC(O[C@H]3CC[C@H](Oc4cnc(S(C)(=O)=O)cn4)CC3)CC2)n1 [Compound 69, 5-(4-((1r,4r)-4-(5-(methylsulfonyl)pyrazin-2-yloxy)cyclohexyloxy)piperidin-1-yl)-3-(prop-1-en-2-yl)-1,2,4-oxadiazole] | – | 31 | – |
| CC(C)OC(=O)N1CCC(O[C@H]2CC[C@H](Oc3ccc(S(C)(=O)=O)cc3F)CC2)CC1 [Compound 13, isopropyl 4-((1r,4r)-4-(2-fluoro-4-(methylsulfonyl)phenoxy)cyclohexyloxy)piperidine-1-carboxylate] | – | 19 | – |
| CC(C)(F)c1noc(N2CCC(O[C@H]3CC[C@H](Oc4cnc(S(C)(=O)=O)cn4)CC3)CC2)n1 [Compound 30, 3-(2-fluoropropan-2-yl)-5-(4-((1r,4r)-4-(5-(methylsulfonyl)pyrazin-2-yloxy)cyclohexyloxy)piperidin-1-yl)-1,2,4-oxadiazole] | 375.7 | – | – |
| CC(C)(F)c1nc(N2CCC(O[C@H]3CC[C@H](Oc4cnc(S(C)(=O)=O)cn4)CC3)CC2)no1 [Compound 62, 5-(2-fluoropropan-2-yl)-3-(4-((1r,4r)-4-(5-(methylsulfonyl)pyrazin-2-yloxy)cyclohexyloxy)piperidin-1-yl)-1,2,4-oxadiazole] | 368.5 | – | % Inhibition of Glucose Excursion (dose: mg/kg) (male diabetic ZDF rats; 3.3 mg/kg p.o. 1 h prior to glucose bolus (3 g/kg)): 25.7% (3.3); % Inhibition of Glucose Excursion (dose: mg/kg) (male diabetic ZDF rats; [1]): 32.7% (10); % Inhibition of Glucose Excursion (dose: mg/kg) (male diabetic ZDF rats; [2]): 48.0% (30); blood glucose after challenge with glucose (male diabetic ZDF rats): lowered blood glucose |
| CC(C)(C)OC(=O)N1CCC(O[C@H]2CC[C@@H](Oc3ccc(S(C)(=O)=O)cc3)CC2)CC1 [Compound 1, tert-butyl 4-((1s,4s)-4-(4-(methylsulfonyl)phenoxy)cyclohexyloxy)piperidine-1-carboxylate] | – | 266 | – |
| CCC(F)(F)C(=O)N1CCC(O[C@H]2CC[C@H](Oc3cnc(S(C)(=O)=O)cn3)CC2)CC1 [Compound 73, 2,2-difluoro-1-(4-((1r,4r)-4-(5-(methylsulfonyl)pyrazin-2-yloxy)cyclohexyloxy)piperidin-1-yl)butan-1-one] | 195.2 | – | – |
| CC(C)(C)OC(=O)CN1CCC(O[C@H]2CC[C@H](Oc3ccc(S(C)(=O)=O)cc3)CC2)CC1 [Compound 35, tert-butyl 2-(4-((1r,4r)-4-(4-(methylsulfonyl)phenoxy)cyclohexyloxy)piperidin-1-yl)acetate] | – | 426 | – |
| CC(C)(C)OC(=O)N1CCC(O[C@H]2CC[C@H](Oc3ccc(S(C)(=O)=O)cc3F)CC2)CC1 [Compound 5, tert-butyl 4-((1r,4r)-4-(2-fluoro-4-(methylsulfonyl)phenoxy)cyclohexyloxy)piperidine-1-carboxylate] | – | 8 | – |
| CC(C)c1noc(N2CCC(O[C@H]3CC[C@H](Oc4cnc(C(=O)N(C)C)cn4)CC3)CC2)n1 [Compound 98, 5-((1r,4r)-4-(1-(3-isopropyl-1,2,4-oxadiazol-5-yl)piperidin-4-yloxy)cyclohexyloxy)-N,N-dimethylpyrazine-2-carboxamide] | – | 152 | – |
| C[C@@H](OC(=O)N1CCC(O[C@H]2CC[C@H](Oc3cnc(S(C)(=O)=O)cn3)CC2)CC1)C(F)(F)F [Compound 83, (R)-1,1,1-trifluoropropan-2-yl 4-((1r,4r)-4-(5-(methylsulfonyl)pyrazin-2-yloxy)cyclohexyloxy)piperidine-1-carboxylate] | – | 3 | % Inhibition of Glucose Excursion (dose: mg/kg) (male diabetic ZDF rats; 1.0 mg/kg p.o. 1 h prior to glucose bolus (3 g/kg)): 14.4% (1.0); % Inhibition of Glucose Excursion (dose: mg/kg) (male diabetic ZDF rats; 3.0 mg/kg p.o. 1 h prior to glucose bolus (3 g/kg)): 44.3% (3.0); % Inhibition of Glucose Excursion (dose: mg/kg) (male diabetic ZDF rats; [1]): 57.9% (10); blood glucose after challenge with glucose (male diabetic ZDF rats): lowered blood glucose |
| CC(C)OC(=O)N1CCC(O[C@H]2CC[C@H](Oc3cnc(-c4ccnnc4)cn3)CC2)CC1 [Compound 77, isopropyl 4-((1r,4r)-4-(5-(pyridazin-4-yl)pyrazin-2-yloxy)cyclohexyloxy)-piperidine-1-carboxylate] | – | 281 | – |
| CCC(F)(F)C(=O)N1CCC(O[C@H]2CC[C@H](Oc3ccc(S(C)(=O)=O)cc3)CC2)CC1 [Compound 48, 2,2-difluoro-1-(4-((1r,4r)-4-(4-(methylsulfonyl)phenoxy)cyclohexyloxy)piperidin-1-yl)butan-1-one] | – | 11 | – |
| CC(C)OC(=O)N1CCC(O[C@H]2CC[C@H](Oc3cnc(S(C)(=O)=O)cn3)CC2)CC1 [Compound 28, isopropyl 4-((1r,4r)-4-(5-(methylsulfonyl)pyrazin-2-yloxy)cyclohexyloxy)piperidine-1-carboxylate] | 468.1 | – | blood glucose after challenge with glucose (male 129SVE mice): lowered blood glucose; % Inhibition of Glucose Excursion (male 129SVE mice; 1 mg/kg p.o. 30 minutes prior to glucose bolus (3 g/kg)): 24.9%; % Inhibition of Glucose Excursion (male 129SVE mice; 3 mg/kg p.o. 30 minutes prior to glucose bolus (3 g/kg)): 26.4%; % Inhibition of Glucose Excursion (male 129SVE mice; 10 mg/kg p.o. 30 minutes prior to glucose bolus (3 g/kg)): 35.7%; % Inhibition of Glucose Excursion (dose: mg/kg) (male diabetic ZDF rats; [1]): 54.7% (10); % Inhibition of Glucose Excursion (dose: mg/kg) (male diabetic ZDF rats; [2]): 76.5% (30); blood glucose after challenge with glucose (male diabetic ZDF rats): lowered blood glucose |
